Data on 3 compounds can be found in ChEMBL document CHEMBL5321223, “Effects and mechanism of action of Chrysanthemum morifolium (Jinsi Huangju) on hyperlipidemia and non-alcoholic fatty liver disease” (Eur J Med Chem, 2023).

Data set [1] deals with T1, Pancreatic triacylglycerol lipase (Homo sapiens) (UniProt P16233).
T1 sequence (whole entry): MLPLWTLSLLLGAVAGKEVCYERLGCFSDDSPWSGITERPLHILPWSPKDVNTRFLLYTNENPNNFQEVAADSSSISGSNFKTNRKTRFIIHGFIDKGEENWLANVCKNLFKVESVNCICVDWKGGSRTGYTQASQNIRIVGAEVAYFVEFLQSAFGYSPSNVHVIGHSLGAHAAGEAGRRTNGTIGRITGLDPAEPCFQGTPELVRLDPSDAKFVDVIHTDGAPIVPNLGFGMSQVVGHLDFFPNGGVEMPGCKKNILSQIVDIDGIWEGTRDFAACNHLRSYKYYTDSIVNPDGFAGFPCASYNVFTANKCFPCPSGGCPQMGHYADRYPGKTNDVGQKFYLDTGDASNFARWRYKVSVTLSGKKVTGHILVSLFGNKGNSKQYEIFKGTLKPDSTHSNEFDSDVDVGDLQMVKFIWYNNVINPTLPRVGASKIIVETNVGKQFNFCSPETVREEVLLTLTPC
Briefly: Inhibition of Pancreatic lipase (unknown origin) using 4-methylumbelleallyl oleate as substrate at 50 uM by microplate reader assay.

Data set [2] concerns the target T1, Pancreatic triacylglycerol lipase (Homo sapiens). The data set is described as follows: Inhibition of Pancreatic lipase (unknown origin) using 4-methylumbelleallyl oleate as substrate at 5 uM by microplate reader assay.
The test system of data set [3] is HepG2. Briefly: Cytotoxicity against human HepG2 cells assessed as reduction in cell survival at 50 uM. As to conditions: hepg2, 50 µM. The class given is toxicity, cell-based.
For data set [4], the system named is HepG2. The data set is described as follows: Hypolipidemic activity in sodium oleate and sodium palmitate induced human HepG2 cells assessed as decrease in intracellular lipid content at 50 uM by Oil Red O staining based assay. The class given is functional. Also noted: scale not given: the % may be the effect or the level left.
The test system of data set [5] is HepG2. Briefly: Hypolipidemic activity in sodium oleate and sodium palmitate induced human HepG2 cells assessed as decrease in intracellular lipid content at 5 uM by Oil Red O staining based assay. It is filed as functional. Also noted: scale not given: the % may be the effect or the level left.
Data set [6] concerns HepG2. The data set is described as follows: Hypolipidemic activity in sodium oleate and sodium palmitate induced human HepG2 cells assessed as decrease in intracellular lipid content at 0.025 mg/ml by Oil Red O staining based assay. Also noted: scale not given: the % may be the effect or the level left. The class given is functional.

As usually defined, the inhibition is how much of the control response was suppressed.

`O=c1cc(-c2ccc(O)c(O)c2)oc2cc(O[C@@H]3O[C@H](CO)[C@@H](O)[C@H](O)[C@H]3O)cc(O)c12` [GALUTEOLIN]: the values for the inhibition in data set [1] and in data set [2] were 49.5% and 18.1%, respectively. Also, the Activity result in data set [3] is “Non-Toxic”; in data set [4], 53.2%; in data set [5], 62.5%.
As for `O=c1cc(-c2ccc(O)cc2)oc2cc(O[C@@H]3O[C@H](CO)[C@@H](O)[C@H](O)[C@H]3O)cc(O)c12` [APIGETRIN], the results for the inhibition in data set [1] and in data set [2] were 59.1% and 13.2%, respectively. The Activity entry in data set [3] is listed as “Non-Toxic”; in data set [4], 97.7%; in data set [5] it was 95.1%.
In the case of `CC[C@H](C)C(=O)O[C@H]1C[C@@H](C)C=C2C=C[C@H](C)[C@H](CC[C@@H]3C[C@@H](O)CC(=O)O3)[C@H]21` [LOVASTATIN], the values for the Activity in data set [4], in data set [5] and in data set [6] were 89.3%, 76.9% and 97%, respectively.
